Assay results from patent US20260184669A1, “LIPID COMPOUND AND COMPOSITION FOR DELIVERY OF ACTIVE SUBSTANCE” (KOREA RESEARCH INSTIUTE OF BIOSCIENCE AND BIOTECHNOLOGY, priority 2022, published 2026).

What was measured:
[1] = Size, polydispersity index and surface charge of mRNA-LNP (Malvern Zetasizer Nano ZS90); assay type: physicochemical; conditions: for PDI / size (nm) Number: mRNA-LNP made with the ionizable lipid at its optimal formulation (Table 2); for size (nm) Number: diluted with PBS to 1 μg/mL mRNA; for Zeta (mV): surface charge of mRNA-LNP made with the ionizable lipid at its optimal formulation (Table 2)
Description: Each mRNA-LNPs produced in Example 27 was diluted with PBS to a final mRNA concentration of 1 μg/mL. The size, polydispersity index (PDI), and surface charge of the mRNA-LNPs were then measured using a Malvern Zetasizer Nano ZS90 (Malvern Instruments, UK).
For particles intended for systemic administration, such as via blood vessels, the particle size must be less than 200 nm in order to pass through the endothelial capillaries of the liver. In addition, the size distribution is considered uniform only when the PDI is 0.3 or less, which enables consistent and efficient therapeutic effects (Non-patent document 3 [Danaei, M. et al). Pharmaceutics 2018, 10, 57]).

[2] = mRNA encapsulation efficiency (Quant-IT RiboGreen RNA assay); assay type: physicochemical; conditions: mRNA encapsulation efficiency of mRNA-LNP made with the ionizable lipid; average of two measurements
Description: The mRNA encapsulation efficiency (EE, %) of LNPs containing mRNA was measured using the Quant-IT™ RiboGreen® RNA assay kit (Invitrogen, USA).
The diluted samples were added to each well of a 96-well plate. Group A (without Triton X-100) was supplemented with 50 μL of 1×TE buffer, while Group B (with Triton X-100) was supplemented with 50 μL of 1×TE buffer containing 2% Triton-X 100. To release the encapsulated mRNA, the LNPs were treated with Triton-X 100 and incubated at 37° C. for 10 minutes. Subsequently, 100 μL of ribogreen reagent was added to each well. The fluorescence intensities of Group A and Group B were measured using a multi-plate reader (λex 480 nm, λem 520 nm), and mRNA encapsulation efficiency (%) was calculated using Equation 1 below. The encapsulation efficiency for each LNP was determined as the average of two independent measurements.

[3] = system: female C57BL/6 mice; experiment: Protein expression efficiency of fLuc mRNA-LNPs after intramuscular injection (IVIS whole-body luminescence); assay type: in vivo; conditions: for Total flux 1 hour / Total flux 3 hours / Total flux 6 hours / Total flux 48 hours / Total flux 72 hours / Total flux: fLuc mRNA-LNP, intramuscular injection, luminescence at injection site, mice; for Total flux 1 hour: 1 hour after administration; for Total flux 3 hours: 3 hours after administration; for Total flux 6 hours: 6 hours after administration; for Total flux 48 hours: 48 hours after administration; for Total flux 72 hours: 72 hours after administration; for Total flux: after administration; for Fold increase in total flux at 3 h, MC3: relative to control LNP formulated with MC3; for Fold increase in total flux at 3 h, MC3 / Fold increase in total flux at 3 h, SM-102: 3 hours after intramuscular injection; for Fold increase in total flux at 3 h, SM-102: relative to control LNP formulated with SM-102
Description: fLuc mRNA-LNPs formulated using various ionizable lipids were prepared according to the method described in Example 27 and administered in vivo via intramuscular (I. M.) or intravenous (IV.) injection to compare the resulting protein expression efficiency in vivo. As a control, EGFP mRNA-LNPs formulated with commercially available ionizable lipids MC3 or SM-102 were used. All mRNA-LNPs were administered at equal mRNA doses per body weight across different concentration groups (n≥4).
Specifically, the dose of mRNA-LNPs was adjusted to 0.1-0.5 mg/kg of body weight, and the formulation was administered via I.M. or I.V. injection to female C57BL/6 mice (6-10 weeks old, Orient Bio, Korea) Subsequently, […], whole-body luminescence images were acquired using an in vivo imaging system (IVIS Lumina III, PerkinElmer, Walzam, MA, USA). To assess protein expression levels, 200 μL of D-luciferin (15 mg/mL) was administered via intraperitoneal (I.P.) injection 10 minutes prior to imaging. During image acquisition, the animals were anesthetized by inhalation of 3% isoflurane in 97% medical grade oxygen. In addition, the acquired luminescence images were quantitatively analyzed using imaging software (Living Image Software Version 4.4; PerkinElmer, USA).
After intramuscular injection of the fLuc mRNA-LNPs, the luminescence intensity at the injection site was measured over time.
Furthermore, the luminescence intensity at the injection site 3 hours after intramuscular injection was measured, and the relative protein expression efficiency was compared to that of control LNPs formulated with MC3 or SM-102.

[4] = Stability of mRNA-LNPs according to storage temperature and duration; assay type: physicochemical; conditions: for Normalized EE % D-1 / Size (nm) D-1 / PDI D-1: day 1; for Normalized EE % D-7 / PDI D-7 / Size (nm) D-7: day 7; for Normalized EE % D-30 / PDI D-30 / Size (nm) D-30: day 30
Description: Stability of fLuc mRNA-LNPs produced using various ionizable lipids according to the method of Example 27, was assessed by storing the LNPs at 4° C. and 25° C. At 1, 7, and 30 days post-manufacture, the size, PDI, and encapsulation efficiency (EE) of each mRNA-LNPs samples were measured using the methods described in Experimental Examples 2 and 3.

SMILES | PDI [1] | size (nm) Number [1] [nm] | Zeta (mV) [1] [mV] | EE (%) [2] [%] | Total flux 1 hour [3] | Total flux 3 hours [3] | Total flux 6 hours [3] | Total flux 48 hours [3] | Total flux 72 hours [3] | Total flux [3] | Fold increase in total flux at 3 h, MC3 [3] | Fold increase in total flux at 3 h, SM-102 [3] | Normalized EE % D-1 ([4]; fLuc mRNA-LNP stored at 4° C.) [%] | Size (nm) D-1 ([4]; fLuc mRNA-LNP stored at 4° C.) [nm] | Normalized EE % D-7 ([4]; fLuc mRNA-LNP stored at 4° C.) [%] | PDI D-7 ([4]; fLuc mRNA-LNP stored at 4° C.) | Size (nm) D-7 ([4]; fLuc mRNA-LNP stored at 4° C.) [nm] | Normalized EE % D-30 ([4]; fLuc mRNA-LNP stored at 4° C.) [%] | PDI D-30 ([4]; fLuc mRNA-LNP stored at 4° C.) | Size (nm) D-30 ([4]; fLuc mRNA-LNP stored at 4° C.) [nm] | further results
CCCCCCCCCCCOC(=O)CCCCCN(CCCCCCCC(=O)OC(CCCCCCCC)CCCCCCCC)CC(O)CCCCNC(=O)c1c[nH]cn1 (stereo not drawn) [Compound 34, Heptadecan-9-yl 8-((2-hydroxy-6-(1H-imidazole-4-carboxamido)hexyl)(6-oxo-6-(undecyloxy)hexyl)amino)octanoate] | 0.143 | 117 | −1.50 | 94 | 6.37E+06 | 3.60E+07 | 1.70E+07 | 1.11E+06 | 7.64E+05 | 2.79E+06 | 2.91 | 0.32 | 94.0 | 116.7 | 92.9 | 0.126 | 121.7 | 91.4 | 0.079 | 164.4 | Normalized EE % D-1 ([4]; fLuc mRNA-LNP stored at 25° C.): 94.0%; PDI D-1 ([4]; fLuc mRNA-LNP stored at 25° C.): 0.143; Size (nm) D-1 ([4]; fLuc mRNA-LNP stored at 25° C.): 116.7 nm; Normalized EE % D-7 ([4]; fLuc mRNA-LNP stored at 25° C.): 90.9%; PDI D-7 ([4]; fLuc mRNA-LNP stored at 25° C.): 0.139; Size (nm) D-7 ([4]; fLuc mRNA-LNP stored at 25° C.): 129.6 nm; Normalized EE % D-30 ([4]; fLuc mRNA-LNP stored at 25° C.): 89.3%; PDI D-30 ([4]; fLuc mRNA-LNP stored at 25° C.): 0.132; Size (nm) D-30 ([4]; fLuc mRNA-LNP stored at 25° C.): 164.4 nm
CCCCCCCCCCCOC(=O)CCCCCN(CCCCCCCC(=O)OC(CCCCCCCC)CCCCCCCC)CC(O)CCCCNC(=O)c1cn(C)cn1 (stereo not drawn) [Compound 37, Heptadecan-9-yl 8-((2-hydroxy-6-(1-methyl-1H-imidazole-4-carboxamido)hexyl)(6-oxo-6-(undecyloxy)hexyl)amino)octanoate] | 0.154 | 115 | −3.30 | 89 | 7.40E+06 | 8.89E+06 | 5.97E+06 | 2.13E+06 | 1.85E+06 | 2.32E+06 | 0.72 | 0.08 | 89.5 | 114.5 | 89.9 | 0.155 | 123.7 | 90.0 | 0.280 | 138.7 | Normalized EE % D-1 ([4]; fLuc mRNA-LNP stored at 25° C.): 89.5%; PDI D-1 ([4]; fLuc mRNA-LNP stored at 25° C.): 0.154; Size (nm) D-1 ([4]; fLuc mRNA-LNP stored at 25° C.): 114.5 nm; Normalized EE % D-7 ([4]; fLuc mRNA-LNP stored at 25° C.): 88.0%; PDI D-7 ([4]; fLuc mRNA-LNP stored at 25° C.): 0.087; Size (nm) D-7 ([4]; fLuc mRNA-LNP stored at 25° C.): 133.6 nm; Normalized EE % D-30 ([4]; fLuc mRNA-LNP stored at 25° C.): 83.8%; PDI D-30 ([4]; fLuc mRNA-LNP stored at 25° C.): 0.126; Size (nm) D-30 ([4]; fLuc mRNA-LNP stored at 25° C.): 135.7 nm
CCCCCCCCCCCOC(=O)CCCCCN(CCCCCCCC(=O)OC(CCCCCCCC)CCCCCCCC)CC(O)CCCCNC(=O)c1cncn1C (stereo not drawn) [Compound 38, Heptadecan-9-yl 8-((2-hydroxy-6-(1-methyl-1H-imidazole-5-carboxamido)hexyl)(6-oxo-6-(undecyloxy)hexyl)amino)octanoate] | 0.132 | 142 | −4.28 | 88 | 2.19E+07 | 4.19E+07 | 1.47E+07 | 7.89E+05 | 5.32E+05 | 2.13E+06 | 3.39 | 0.37 | 88.5 | 142.2 | 91.1 | 0.086 | 141.1 | 87.6 | 0.086 | 147.3 | Normalized EE % D-1 ([4]; fLuc mRNA-LNP stored at 25° C.): 89.5%; PDI D-1 ([4]; fLuc mRNA-LNP stored at 25° C.): 0.132; Size (nm) D-1 ([4]; fLuc mRNA-LNP stored at 25° C.): 142.2 nm; Normalized EE % D-7 ([4]; fLuc mRNA-LNP stored at 25° C.): 88.0%; PDI D-7 ([4]; fLuc mRNA-LNP stored at 25° C.): 0.093; Size (nm) D-7 ([4]; fLuc mRNA-LNP stored at 25° C.): 140.4 nm; Normalized EE % D-30 ([4]; fLuc mRNA-LNP stored at 25° C.): 86.1%; PDI D-30 ([4]; fLuc mRNA-LNP stored at 25° C.): 0.041; Size (nm) D-30 ([4]; fLuc mRNA-LNP stored at 25° C.): 152.0 nm
